Assay results: patent publication US8519007B2, “Use certain diterpene compounds in the treatment of androgen receptor-associated diseases” (Academia Sinica, priority 2008, dated 2013)

Legend:
AR-LBD = biological target: T1, AR-LBD (Homo sapiens, UniProt P10275); test: One-hybrid assay (GBD-AR-LBD) in 22Rv1 cells; type: cell-based; conditions: 10 nM DHT, 20 h
T1 construct: expressed in transfected cells; host or cells: 22Rv1
T1 sequence (P10275 669-900 limits assumed): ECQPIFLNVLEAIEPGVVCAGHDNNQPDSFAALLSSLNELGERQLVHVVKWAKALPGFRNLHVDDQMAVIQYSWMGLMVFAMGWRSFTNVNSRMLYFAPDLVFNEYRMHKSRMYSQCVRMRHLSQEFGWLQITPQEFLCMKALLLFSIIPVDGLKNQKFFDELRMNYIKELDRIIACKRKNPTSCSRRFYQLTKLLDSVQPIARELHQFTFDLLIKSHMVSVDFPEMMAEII
Protocol: The molecular mechanism whereby HDHS represses AR activity was analyzed by the following experiments. […] The transfected cells were treated with vehicle or various compounds for another 20 h.

[1] = biological target: T2, AR-LBD interaction with the full-length AR (Homo sapiens, UniProt P10275); test: Two-hybrid interaction assay in PC-3 cells; type: cell-based; conditions: 20 h
T2 construct: expressed in transfected cells; host or cells: PC-3
T2 sequence (P10275 669-900 limits assumed): T1 sequence (P10275 669-900 limits assumed)
Protocol: Second, the AR-LBD interaction with the full-length AR can be detected by a two-hybrid interaction assay in PC-3 cells through transfection of GBD-AR-LBD and AR fused with the VP16 activation domain (AR-VP16). […] The transfected cells were treated with vehicle or various compounds for another 20 h. Luciferase activity was measured using the luciferase reporter gene assay system (Promega, Madison, Wis.) and normalized against respective Renilla luciferase values.

[2] = system: PSA and AR expression in LNCaP cells; test: Western blot of PSA and AR expression in DHT-treated LNCaP cells; type: cell-based, human; conditions: 10 nM DHT, 24 h
Source text: The AR suppressing activity of HDHS was also examined in LNCaP cells, another androgen-dependent PCa cell line. […] Expression of endogenous PSA in treated cells, as a measure of cellular response to androgen, and AR activity were detected by western blot with anti-PSA and anti-AR antibodies. Protein levels (relative to actin; listed below the first two blots) were quantitatively analyzed with Chemigenius (Biolabo). The blots shown in FIG. 2B are representative of three independent experiments.

PC-3 cells [3] = test: Apoptosis by nucleosome release (cytoplasmic DNA fragmentation); type: cell-based, human; conditions: PC-3, 5-10 μM, 24 h
Protocol: (§1) FIGS. 4A-B. HDHS induces apoptosis in AR-dependent PCa cells. A, Apoptosis of cytoplasmic DNA fragmentation in different cell lines treated with vehicle or indicated concentrations of HDHS for 24 h. Difference between the indicated pair of treatments was tested for statistic significance as marked. *, P≦0.05; **, P≦0.01. B, Activation of caspases and PARP in HDHS-induced apoptosis of LNCaP cells.
(§2) In light of the increase of sub-G1 populations by HDHS, apoptosis in treated cells was further analyzed via measurement of nucleosome release in PCa cells. […] 22Rv1 cells with AR expression are ablation-resistant but respond to androgen stimulation; HDHS led to their apoptosis.

LNCaP cells [4] = test: as above; type: cell-based, human; conditions: 5-10 μM, 24 h
Protocol: as §1, §2

PC-3 cells [5] = test: Morphology of treated cells; conditions: PC-3, up to 50 μM
LNCaP cells [6] = test: Western blot of caspases, PARP, p53 and Bcl-xL; type: cell-based, human; conditions: 10 μM
Protocol: (§3) During apoptosis, various caspases are activated which are involved in the cleavage and […] a range of cellular substrates, including […] the DNA repair enzyme PARP (Herceg Z et al., Mol Cell Biol 1999;10:5124-33; Okada H et al., Nat Rev Cancer 2004; 4:592-603). In the presence of 10 μM HDHS, PARP cleavage was observed, and at the same time caspase-3 and -7 were activated by proteolytic cleavage (FIG. 4B, lane 5). […] In contrast, activation of caspase-3 and -7 or cleavage of PARP were not detected in PC-3 cells treated with 10 μM HDHS for 24 h (FIG. 4B, lane 10). Tumor suppressor p53 is a control for the G1 checkpoint and cell apoptosis, and LNCaP cells express wild-type p53 (van Bokhoven A et al., Prostate 2003; 57:205-25).

PC-3 cells [7] = test: Western blot of caspases and PARP; type: cell-based, human; conditions: PC-3, 10 μM, 24 h
Protocol: as §3

PC-3 cells [8] = test: Colony-forming growth assay; type: cell-based; conditions: Homo sapiens, 288 h; PC-3, 12 days; read-out: IC50 (anti-proliferation potency), colony growth
Protocol: (§4) FIGS. 3A-C. HDHS affects growth of PCa cells. A, Cell viability of different cell lines treated with vehicle (Ctrl) or indicated concentrations of HDHS for 48 h. The absorbance of the control group was defined as 100%. B, Colony-forming growth of LNCaP and 22Rv1 cells (AR-dependent PCa cells) and PC-3 cells (AR-independent PCa cells) in 24-well multi-dishes with indicated treatments for 12 days. The results were presented as percentage of growth with respect to control treatment of the same cell line. C, Photographs of different PCa cell lines growing on culture plates with designated treatments for […].
(§5) The long-term effect of HDHS on the malignant growth of AR-dependent (22Rv1, and LNCaP) and AR-independent (PC-3) PCa cells was examined by colony-forming growth assay. […] The differential effect was also reflected in the morphology of treated cells.

LNCaP cells [9] = test: Colony-forming growth assay; type: cell-based; conditions: Homo sapiens, 288 h, 12 days, read-out: IC50 (anti-proliferation potency), colony growth
Protocol: as §4, §5

22Rv1 cells = test: Colony-forming growth assay; type: cell-based; conditions: Homo sapiens, 288 h; 22Rv1, 12 days; read-out: IC50 (anti-proliferation potency), colony growth
Protocol: as §4, §5

CC(C)c1cc2c(cc1O)[C@@]1(C)CCCC(C)(C)C1=C(O)C2=O [Compound 2, 6,12-dihydroxyabieta-5,8,11,13-tetraen-7-one]
effect on DHT-induction of AR-LBD (one-hybrid luciferase) (AR-LBD): inhibited the AR-LBD dose-dependently
effect on DHT-induced two-hybrid interaction [1]: competitively inhibited
AR activation of PSA expression by DHT ([2]; 10 μM): completely abolished
protein levels of AR ([2]; 10 μM): fell to basal level
protein levels of AR ([2]; 2.5 or 5 μM): not significantly altered
apoptosis (nucleosome release) (PC-3 cells [3]): not in PC-3 cells
apoptosis (nucleosome release) (LNCaP cells [4]): significantly induced
morphology of treated cells (PC-3 cells [5]): only cell rounding
PARP cleavage (LNCaP cells [6]): observed
caspase-3 and -7 proteolytic cleavage (LNCaP cells [6]): activated
decrease of anti-apoptotic regulator Bcl-xL level (LNCaP cells [6]; 24 h): ~50%
increase in p53 (LNCaP cells [6]; 24 h): 3 fold
activation of caspase-3 and -7 or cleavage of PARP (PC-3 cells [7]): not detected
IC50 (PC-3 cells [8]): 13.2 µM
IC50 (LNCaP cells [9]): 7.5 µM
IC50 (22Rv1 cells): 6.3 µM
